Test results as given in ChEMBL document CHEMBL1156950, “Synthesis and biological evaluation of 4-anilinoquinolines as potent inhibitors of epidermal growth factor receptor” (J Med Chem, 2010).

Assays:
[1] = target: Insulin-like growth factor 1 receptor (Homo sapiens) (UniProt P08069); assay: Inhibition of IGF-1R at 10 uM assessed as residual activity by [33P]ATP radioactive filter binding assay relative to control
[2] = target: Ribosomal protein S6 kinase alpha-3 (Homo sapiens) (UniProt P51812); assay: Inhibition of RSK2 at 10 uM assessed as residual activity by [33P]ATP radioactive filter binding assay relative to control
[3] = target: MAP/microtubule affinity-regulating kinase 4 (Homo sapiens) (UniProt Q96L34); assay: Inhibition of MARK4 at 10 uM assessed as residual activity by [33P]ATP radioactive filter binding assay relative to control
[4] = target: Serine/threonine-protein kinase MARK2 (Homo sapiens) (UniProt Q7KZI7); assay: Inhibition of MARK2 at 10 uM assessed as residual activity by [33P]ATP radioactive filter binding assay relative to control
Chain of Serine/threonine-protein kinase MARK2 (Homo sapiens) (Q7KZI7 whole entry): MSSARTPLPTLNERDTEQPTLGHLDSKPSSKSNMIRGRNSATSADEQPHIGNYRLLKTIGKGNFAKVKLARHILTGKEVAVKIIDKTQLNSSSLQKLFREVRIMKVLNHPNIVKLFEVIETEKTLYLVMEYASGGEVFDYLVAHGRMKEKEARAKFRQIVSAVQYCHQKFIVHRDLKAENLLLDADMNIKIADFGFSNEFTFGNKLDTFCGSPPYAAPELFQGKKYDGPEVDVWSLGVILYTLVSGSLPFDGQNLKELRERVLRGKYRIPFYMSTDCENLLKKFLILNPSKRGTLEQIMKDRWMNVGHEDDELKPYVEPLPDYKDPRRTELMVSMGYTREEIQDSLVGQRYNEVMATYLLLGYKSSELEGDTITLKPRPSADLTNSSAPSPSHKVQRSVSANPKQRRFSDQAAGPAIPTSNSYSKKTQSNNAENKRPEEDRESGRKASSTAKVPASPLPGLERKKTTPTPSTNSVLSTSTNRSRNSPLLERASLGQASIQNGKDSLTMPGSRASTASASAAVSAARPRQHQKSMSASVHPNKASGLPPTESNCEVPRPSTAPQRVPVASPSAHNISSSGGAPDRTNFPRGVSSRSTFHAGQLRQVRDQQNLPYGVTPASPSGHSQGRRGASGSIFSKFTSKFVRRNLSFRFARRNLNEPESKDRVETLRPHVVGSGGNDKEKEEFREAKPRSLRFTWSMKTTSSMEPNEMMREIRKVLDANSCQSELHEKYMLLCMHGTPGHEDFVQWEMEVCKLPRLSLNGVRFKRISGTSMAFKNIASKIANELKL

[5] = target: Insulin receptor-related protein (Homo sapiens) (UniProt P14616); assay: Inhibition of IRR at 10 uM assessed as residual activity by [33P]ATP radioactive filter binding assay relative to control
[6] = target: Serine/threonine-protein kinase PAK 4 (Homo sapiens) (UniProt O96013); assay: Inhibition of PAK4 at 10 uM assessed as residual activity by [33P]ATP radioactive filter binding assay relative to control
[7] = target: Mitogen-activated protein kinase kinase kinase 9 (Homo sapiens) (UniProt P80192); assay: Inhibition of MLK1 at 10 uM assessed as residual activity by [33P]ATP radioactive filter binding assay relative to control
Chain of Mitogen-activated protein kinase kinase kinase 9 (Homo sapiens) (P80192 whole entry, looked up): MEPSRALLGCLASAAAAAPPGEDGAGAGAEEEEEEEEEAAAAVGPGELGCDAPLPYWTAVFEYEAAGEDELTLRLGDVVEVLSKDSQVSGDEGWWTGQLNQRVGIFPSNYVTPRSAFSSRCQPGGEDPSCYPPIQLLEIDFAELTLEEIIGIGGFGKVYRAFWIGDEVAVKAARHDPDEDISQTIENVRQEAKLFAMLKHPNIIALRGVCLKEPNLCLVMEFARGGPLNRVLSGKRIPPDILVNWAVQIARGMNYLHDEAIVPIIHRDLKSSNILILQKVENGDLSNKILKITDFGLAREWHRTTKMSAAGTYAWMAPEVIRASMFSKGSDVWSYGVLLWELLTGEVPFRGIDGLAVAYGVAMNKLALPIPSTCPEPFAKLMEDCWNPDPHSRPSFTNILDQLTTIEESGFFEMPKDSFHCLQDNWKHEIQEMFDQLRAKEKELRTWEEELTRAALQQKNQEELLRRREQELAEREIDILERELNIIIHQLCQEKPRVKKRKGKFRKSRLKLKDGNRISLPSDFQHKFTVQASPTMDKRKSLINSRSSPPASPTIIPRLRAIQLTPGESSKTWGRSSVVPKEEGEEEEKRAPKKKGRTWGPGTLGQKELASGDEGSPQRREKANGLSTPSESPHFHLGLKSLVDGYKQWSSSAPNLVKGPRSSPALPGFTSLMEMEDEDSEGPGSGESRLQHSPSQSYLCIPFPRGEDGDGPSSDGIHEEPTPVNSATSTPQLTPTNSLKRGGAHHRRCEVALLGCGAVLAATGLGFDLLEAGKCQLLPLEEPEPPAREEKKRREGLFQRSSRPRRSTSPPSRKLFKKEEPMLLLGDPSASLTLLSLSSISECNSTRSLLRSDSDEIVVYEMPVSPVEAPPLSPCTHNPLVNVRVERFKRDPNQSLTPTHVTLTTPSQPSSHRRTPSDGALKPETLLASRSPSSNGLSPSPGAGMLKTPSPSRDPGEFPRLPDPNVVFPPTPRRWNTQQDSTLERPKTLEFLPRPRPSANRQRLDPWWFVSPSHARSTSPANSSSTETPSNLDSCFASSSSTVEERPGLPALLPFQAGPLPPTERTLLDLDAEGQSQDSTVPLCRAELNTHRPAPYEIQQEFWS

[8] = target: Mitogen-activated protein kinase kinase kinase 11 (Homo sapiens) (UniProt Q16584); assay: Inhibition of MLK3 at 10 uM assessed as residual activity by [33P]ATP radioactive filter binding assay relative to control
[9] = target: Serine/threonine-protein kinase Nek6 (Homo sapiens) (UniProt Q9HC98); assay: Inhibition of NEK6 at 10 uM assessed as residual activity by [33P]ATP radioactive filter binding assay relative to control
Chain of Serine/threonine-protein kinase Nek6 (Homo sapiens) (Q9HC98 whole entry): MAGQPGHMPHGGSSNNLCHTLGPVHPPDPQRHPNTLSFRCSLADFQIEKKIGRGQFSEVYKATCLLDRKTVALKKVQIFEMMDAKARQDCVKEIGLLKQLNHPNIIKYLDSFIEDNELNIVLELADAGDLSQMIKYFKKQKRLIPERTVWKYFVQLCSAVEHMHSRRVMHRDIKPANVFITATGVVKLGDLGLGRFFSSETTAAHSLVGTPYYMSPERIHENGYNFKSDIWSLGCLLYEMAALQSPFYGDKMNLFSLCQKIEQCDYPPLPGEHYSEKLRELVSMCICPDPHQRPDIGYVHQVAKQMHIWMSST

[10] = target: Protein kinase C zeta type (Homo sapiens) (UniProt Q05513); assay: Inhibition of PKCzeta at 10 uM assessed as residual activity by [33P]ATP radioactive filter binding assay relative to control
Chain of Protein kinase C zeta type (Homo sapiens) (Q05513 whole entry): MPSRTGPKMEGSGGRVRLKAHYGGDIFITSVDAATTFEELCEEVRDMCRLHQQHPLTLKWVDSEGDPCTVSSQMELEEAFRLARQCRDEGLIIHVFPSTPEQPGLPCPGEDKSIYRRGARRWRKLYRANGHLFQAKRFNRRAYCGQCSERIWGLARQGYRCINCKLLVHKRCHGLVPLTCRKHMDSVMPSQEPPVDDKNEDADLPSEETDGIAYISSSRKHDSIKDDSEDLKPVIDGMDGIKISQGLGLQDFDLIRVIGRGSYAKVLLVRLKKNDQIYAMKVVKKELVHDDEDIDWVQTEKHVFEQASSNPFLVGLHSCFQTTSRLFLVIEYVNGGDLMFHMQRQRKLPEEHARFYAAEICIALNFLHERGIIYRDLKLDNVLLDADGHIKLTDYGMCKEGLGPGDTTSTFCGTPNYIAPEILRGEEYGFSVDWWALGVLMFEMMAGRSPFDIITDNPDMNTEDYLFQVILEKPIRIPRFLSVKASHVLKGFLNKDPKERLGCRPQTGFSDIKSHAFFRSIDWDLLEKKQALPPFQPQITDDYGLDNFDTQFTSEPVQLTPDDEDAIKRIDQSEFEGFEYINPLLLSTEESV

[11] = Inhibition of CK2 at 10 uM assessed as residual activity by [33P]ATP radioactive filter binding assay relative to control
[12] = target: MAP/microtubule affinity-regulating kinase 3 (Homo sapiens) (UniProt P27448); assay: Inhibition of MARK3 at 10 uM assessed as residual activity by [33P]ATP radioactive filter binding assay relative to control
[13] = target: Ribosomal protein S6 kinase alpha-5 (Homo sapiens) (UniProt O75582); assay: Inhibition of MSK1 at 10 uM assessed as residual activity by [33P]ATP radioactive filter binding assay relative to control
[14] = target: Eukaryotic elongation factor 2 kinase (Homo sapiens) (UniProt O00418); assay: Inhibition of EF2K at 10 uM assessed as residual activity by [33P]ATP radioactive filter binding assay relative to control
[15] = target: RAC-alpha serine/threonine-protein kinase (Homo sapiens) (UniProt P31749); assay: Inhibition of PKBalpha at 10 uM assessed as residual activity by [33P]ATP radioactive filter binding assay relative to control
[16] = target: Serine/threonine-protein kinase PLK1 (Homo sapiens) (UniProt P53350); assay: Inhibition of PLK1 at 10 uM assessed as residual activity by [33P]ATP radioactive filter binding assay relative to control
[17] = target: Receptor-interacting serine/threonine-protein kinase 2 (Homo sapiens) (UniProt O43353); assay: Inhibition of RIPK2 at 10 uM assessed as residual activity by [33P]ATP radioactive filter binding assay relative to control
[18] = target: Proto-oncogene tyrosine-protein kinase Src (Homo sapiens) (UniProt P12931); assay: Inhibition of Src at 10 uM assessed as residual activity by [33P]ATP radioactive filter binding assay relative to control
[19] = target: Serine/threonine-protein kinase D1 (Homo sapiens) (UniProt Q15139); assay: Inhibition of PKD1 at 10 uM assessed as residual activity by [33P]ATP radioactive filter binding assay relative to control
[20] = target: Maternal embryonic leucine zipper kinase (Homo sapiens) (UniProt Q14680); assay: Inhibition of MELK at 10 uM assessed as residual activity by [33P]ATP radioactive filter binding assay relative to control
[21] = target: Calcium/calmodulin-dependent protein kinase type 1 (Homo sapiens) (UniProt Q14012); assay: Inhibition of CAMK1 at 10 uM assessed as residual activity by [33P]ATP radioactive filter binding assay relative to control
[22] = target: Mitogen-activated protein kinase 14 (Homo sapiens) (UniProt Q16539); assay: Inhibition of p38alpha at 10 uM assessed as residual activity by [33P]ATP radioactive filter binding assay relative to control
[23] = target: Dual specificity tyrosine-phosphorylation-regulated kinase 3 (Homo sapiens) (UniProt O43781); assay: Inhibition of DYRK3 at 10 uM assessed as residual activity by [33P]ATP radioactive filter binding assay relative to control
[24] = target: Serine/threonine-protein kinase N2 (Homo sapiens) (UniProt Q16513); assay: Inhibition of PRK2 at 10 uM assessed as residual activity by [33P]ATP radioactive filter binding assay relative to control
[25] = Inhibition of VEGFR at 10 uM assessed as residual activity by [33P]ATP radioactive filter binding assay relative to control
[26] = target: Casein kinase I isoform alpha (Homo sapiens) (UniProt P48729); assay: Inhibition of CK1 at 10 uM assessed as residual activity by [33P]ATP radioactive filter binding assay relative to control
Chain of Casein kinase I isoform alpha (Homo sapiens) (P48729 2-337 limits assumed): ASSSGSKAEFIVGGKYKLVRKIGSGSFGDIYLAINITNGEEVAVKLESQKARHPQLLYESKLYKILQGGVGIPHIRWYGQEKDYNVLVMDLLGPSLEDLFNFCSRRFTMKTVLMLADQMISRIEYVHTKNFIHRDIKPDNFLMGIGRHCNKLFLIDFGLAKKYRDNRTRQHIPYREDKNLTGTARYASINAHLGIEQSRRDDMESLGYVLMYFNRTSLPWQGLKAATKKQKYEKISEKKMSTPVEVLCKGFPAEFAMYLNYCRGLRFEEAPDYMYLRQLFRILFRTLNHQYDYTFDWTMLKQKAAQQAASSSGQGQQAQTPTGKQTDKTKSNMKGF

[27] = target: Dual specificity mitogen-activated protein kinase kinase 1 (Homo sapiens) (UniProt Q02750); assay: Inhibition of MKK1 at 10 uM assessed as residual activity by [33P]ATP radioactive filter binding assay relative to control
Chain of Dual specificity mitogen-activated protein kinase kinase 1 (Homo sapiens) (Q02750 whole entry): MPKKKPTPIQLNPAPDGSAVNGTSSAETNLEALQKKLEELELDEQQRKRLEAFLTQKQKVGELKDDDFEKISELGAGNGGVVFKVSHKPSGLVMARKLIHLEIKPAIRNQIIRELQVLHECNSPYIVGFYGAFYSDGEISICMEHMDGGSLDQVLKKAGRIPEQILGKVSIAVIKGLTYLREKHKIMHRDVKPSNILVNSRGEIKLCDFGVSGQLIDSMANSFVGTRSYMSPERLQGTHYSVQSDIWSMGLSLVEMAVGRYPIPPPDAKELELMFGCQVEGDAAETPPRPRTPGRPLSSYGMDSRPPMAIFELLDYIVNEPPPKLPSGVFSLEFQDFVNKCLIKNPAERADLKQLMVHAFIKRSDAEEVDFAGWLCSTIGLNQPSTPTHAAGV

[28] = target: Serine/threonine-protein kinase pim-1 (Homo sapiens) (UniProt P11309); assay: Inhibition of PIM1 at 10 uM assessed as residual activity by [33P]ATP radioactive filter binding assay relative to control
[29] = target: Serine/threonine-protein kinase BRSK1 (Homo sapiens) (UniProt Q8TDC3); assay: Inhibition of BRSK1 at 10 uM assessed as residual activity by [33P]ATP radioactive filter binding assay relative to control
[30] = target: Mitogen-activated protein kinase 8 (Homo sapiens) (UniProt P45983); assay: Inhibition of JNK1 at 10 uM assessed as residual activity by [33P]ATP radioactive filter binding assay relative to control
[31] = target: Dual specificity tyrosine-phosphorylation-regulated kinase 2 (Homo sapiens) (UniProt Q92630); assay: Inhibition of DYRK2 at 10 uM assessed as residual activity by [33P]ATP radioactive filter binding assay relative to control
[32] = cells; conditions: Mus musculus, BaF3, 96 h
Description: Growth inhibition of mouse BA/F3 cells expressing EGFR Del5 mutant after 96 hrs by cell titer-glo assay

[33] = cells; conditions: Mus musculus, BaF3, 96 h; remark: listed apart in the source

Chain of Insulin-like growth factor 1 receptor (Homo sapiens) (P08069 31-736 limits assumed): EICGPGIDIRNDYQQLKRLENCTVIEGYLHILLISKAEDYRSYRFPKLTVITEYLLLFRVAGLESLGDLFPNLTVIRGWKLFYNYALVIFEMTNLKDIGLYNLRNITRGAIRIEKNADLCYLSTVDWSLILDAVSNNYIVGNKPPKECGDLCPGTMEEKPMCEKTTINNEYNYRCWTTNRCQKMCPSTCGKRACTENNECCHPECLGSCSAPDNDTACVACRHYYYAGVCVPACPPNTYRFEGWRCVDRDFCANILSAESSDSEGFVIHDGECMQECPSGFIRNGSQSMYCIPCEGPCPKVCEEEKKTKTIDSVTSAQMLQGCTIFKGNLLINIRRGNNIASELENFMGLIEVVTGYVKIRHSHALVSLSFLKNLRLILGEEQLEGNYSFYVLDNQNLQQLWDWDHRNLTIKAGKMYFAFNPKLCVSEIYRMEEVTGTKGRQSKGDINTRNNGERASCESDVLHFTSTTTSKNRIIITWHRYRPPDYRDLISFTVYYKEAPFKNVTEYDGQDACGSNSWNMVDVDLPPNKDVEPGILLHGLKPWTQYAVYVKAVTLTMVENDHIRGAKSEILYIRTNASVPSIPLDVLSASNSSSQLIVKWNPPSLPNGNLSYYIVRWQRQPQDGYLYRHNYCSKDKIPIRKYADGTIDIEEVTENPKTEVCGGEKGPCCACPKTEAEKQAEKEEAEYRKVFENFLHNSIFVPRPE
Chain of Insulin-like growth factor 1 receptor (Homo sapiens) (P08069 741-1367 limits assumed): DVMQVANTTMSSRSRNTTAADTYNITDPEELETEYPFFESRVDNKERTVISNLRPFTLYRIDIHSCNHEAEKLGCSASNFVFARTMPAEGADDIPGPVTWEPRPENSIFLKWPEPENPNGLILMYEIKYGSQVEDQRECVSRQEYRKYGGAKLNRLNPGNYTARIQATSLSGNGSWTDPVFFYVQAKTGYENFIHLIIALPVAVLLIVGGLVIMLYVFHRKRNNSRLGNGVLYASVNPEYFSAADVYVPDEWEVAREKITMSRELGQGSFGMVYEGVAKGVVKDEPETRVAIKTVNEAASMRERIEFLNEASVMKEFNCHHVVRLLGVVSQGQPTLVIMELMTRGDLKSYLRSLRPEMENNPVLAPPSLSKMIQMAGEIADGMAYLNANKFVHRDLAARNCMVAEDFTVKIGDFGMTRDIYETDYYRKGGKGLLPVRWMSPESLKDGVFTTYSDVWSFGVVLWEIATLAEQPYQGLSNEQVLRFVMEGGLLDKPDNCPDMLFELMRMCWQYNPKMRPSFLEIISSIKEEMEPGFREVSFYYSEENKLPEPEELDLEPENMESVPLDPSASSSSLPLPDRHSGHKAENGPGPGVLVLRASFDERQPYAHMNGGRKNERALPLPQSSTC

SMILES	Activity [1] [%]	Activity [2] [%]	Activity [3] [%]	Activity [4] [%]	Activity [5] [%]	Activity [6] [%]	Activity [7] [%]	Activity [8] [%]	Activity [9] [%]	Activity [10] [%]	Activity [11] [%]	Activity [12] [%]	Activity [13] [%]	Activity [14] [%]	Activity [15] [%]	Activity [16] [%]	Activity [17] [%]	Activity [18] [%]	Activity [19] [%]	Activity [20] [%]	also measured
CN(C)CCCC(=O)Nc1ccc2nccc(Nc3cccc(Br)c3)c2c1	71	74	75	77	79	79	79	84	85	86	90	94	96	99	100	109	10	13	14	25	Activity [21]: 30%; Activity [22]: 30%; Activity [23]: 32%; Activity [24]: 36%; Activity [25]: 36%; Activity [26]: 44%; Activity [27]: 45%; Activity [28]: 46%; Activity [29]: 46%; Activity [30]: 49%; Activity [31]: 52%; GI50 [32]: < 500 nM; GI50 [33]: > 500 nM
CN(C)CCCC(=O)Nc1ccc2ncnc(Nc3cccc(Br)c3)c2c1	105	78	74	82	70	83	87	65	77	86	96	86	93	91	103	95	10	44	18	49	Activity [21]: 57%; Activity [22]: 63%; Activity [23]: 27%; Activity [24]: 37%; Activity [25]: 50%; Activity [26]: 66%; Activity [27]: 29%; Activity [28]: 12%; Activity [29]: 52%; Activity [30]: 76%; Activity [31]: 51%; GI50 [32]: < 500 nM; GI50 [33]: > 5000 nM
